The values below come from patent US20090036437A1, “PHARMACEUTICAL COMPOSITION COMPRISING PHENOXAZINIUM COMPOUND AS AN ACTIVE INGREDIENT” (priority 2005, published 2009).

Type in all cases: cell-based
Data set [1] concerns Trypanosoma brucei rhodensiense (STIB 900 strain). The data set can be described thus: in vitro growth-inhibiting screening assay, protozoa of African trypanosomiasis. The note with it: for EC50: 72 h, Alamar Blue, read-out: 50% growth-inhibiting concentration (nM) Trypanosoma brucei rhod. The method, then: This test was done using a trypomastigote of the protozoa of Trypanosoma brucei rhodensiense (STIB 900 strain) ranging in blood stream. MEM medium sterilized by filtration was supplemented with 25 mM of N-2-hydroxyethylpiperazine-2-ethanesulfonic acid (HEPES), 1 g/L of glucose, 1% of MEM non-essential amino acids, 0.2 mM of 2-mercaptoethanol, 2 mM of sodium pyruvate, 1 mM of hypoxathine and 15% of heat-treated horse serum. The protozoa were cultured under CO2 concentration of 5%, at 37° C.
A test sample was prepared by dissolving the test compounds according to the present invention and a positive control drug (Melarsoprol) in DMSO to a predetermined concentration. Culture medium containing the protozoa of 8×10^3, and the test sample comprising the predetermined amount of the test compound, and DMSO without the test compound were added into each well of 96-well culture plate to a final volume of 100 μL in duplicate.
(§1) After incubation of the culture plate for 72 hours in an incubator, a growth-inhibiting activity was assayed as follows. Alamar Blue aqueous solution (10 μL) was added to each well followed by a further two-hour culture. The culture plate was then attached to a fluorescence micro titer plate reader (Spectramax Gemeni XS; U.S. Molecular Device Co.), the intensity of fluorescence at 588 nm was detected with excitation wave length of 536 nm to calculate an infection ratio of the protozoa with respect to a group treated with the test sample and a control group. A growth-inhibiting ratio was then calculated from the resulting infection ratio in accordance with the following equation to determine 50% growth-inhibiting concentration (EC50).
(§2) Growth-inhibiting ratio (%)=[1−(b−a)/(c−a)]×100 • a: Initial infection ratio; • b: Infection ratio of the test sample group; and • c: Infection ratio of the control group.
A selective toxicity coefficient, which is used as an index for the selective toxicity for the protozoa of African trypanosomiasis, was calculated by the following equation, and the pharmaceutical effect was determined.
Selective toxicity coefficient=(EC50 value of the test sample for rat L6 cell)/(EC50 value of the test sample for the protozoa of African typanosomiasis)

Data set [2] relates to Leishmania donovani (MHOM/ET/67/L82 strain). The data set can be described thus: in vitro growth-inhibiting screening assay, protozoa of Leishmaniasis. Particulars: amastigotes; 72 h, Alamar Blue; read-out: growth-inhibiting concentration (nM) Leishmania donovani. The method, then:
This test was done using the protozoa of Leishmania donovani (MHOM/ET/67/L82 strain). The protozoa were subcultured using Syrian Golden hamster and an amastigote was obtained therefrom. The amastigotes were cultured in SM medium supplemented with 10% of heat-treated fetal calf serum (pH 5.4) under CO2 concentration of 5%, at 37° C.
A test sample was prepared by dissolving the test compounds according to the present invention and a positive control drug (Miltefosine) in DMSO to a predetermined concentration. Culture medium containing a predetermined number of the protozoa was added into each well of a 96-well culture plate, and the concentration of the amastigotes was measured by means of CASY cell analysis system (Dermany, Scharfe Co.). Test sample comprising the predetermined amount of the test compound, and DMSO without the test compound were added to the wells in duplicate.
as §1, with “device” for “Device”, “trated” for “treated”
as §2
A selective toxicity coefficient, which is used as an index for the selective toxicity for the protozoa of Leishmaniasis, was calculated by the following equation, and the pharmaceutical effect was determined.
A selective toxicity coefficient=(EC50 value of the test sample for rat L6 cell)/(EC50 value of the test sample for the protozoa of Leishmaniasis).

Data set [3] deals with Rat L6 cell (rat skeletal myoblast cell). Description: in vitro growth-inhibiting assay of rat L6 cells. The protocol:
Rat L6 cell (rat skeletal myoblast cell) was cultured in RPMI-1640 culture medium supplemented with 1% of L-glutamine (200 mM) and fetal calf serum (10%) under 5% CO2 concentration at 37° C. A test sample was prepared by dissolving the test compounds according to the present invention and a positive control drug in DMSO to a predetermined concentration. After pre-culture had been finished, the culture medium containing the cells in a logarithmic phase was placed into each well of a 96-well culture plate, and the test sample comprising the predetermined amount of the test compound, and DMSO without the test compound were added to the wells in duplicate.
After incubation of the culture plate for 72 hours in an incubator, a growth-inhibiting activity was assayed as follows. Alamar Blue aqueous solution (10 μL) was added to each well followed by a further two-hour culture. The culture plate was then attached to a fluorescence micro titer plate reader (Spectramax Gemeni XS; U.S. Molecular Device Co.), and the intensity of fluorescence at 588 nm was detected with an excitation wave length of 536 nm. A residual ratio of L6 cells was calculated with respect to a group treated with the test sample and a control group. A growth-inhibiting ratio for L6 cells was then calculated from the resulting residual ratio in accordance with the following equation to determine 50% growth-inhibiting concentration (EC50).
Growth-inhibiting ratio (%)=[1−(C−A)/(B−A)]×100 • A: Initial number of cells; • B: Number of the cells in the control after 3 days; and • C: Number of the cells treated with the test sample after 3 days Determination of Pharmaceutical effect for Chloroquine-Resistant Malaria

Where [4] appears, read: Table 3, 72 h, Alamar Blue, read-out: 50% growth-inhibiting concentration (nM) cytotoxicity L6.
The mark [5] stands for this setting: Table 8, read-out: 50% growth-inhibiting concentration (nM) cytotoxicity L6.
Setting [6] is: Table 9, read-out: 50% growth-inhibiting concentration (nM) cytotoxicity L6.
Where [7] appears, read: Table 10, read-out: growth-inhibiting concentration (nM) Cytotoxicity L6.

Like-named read-outs stand apart in the source and are kept apart here.

Turning to `CCN(CC)c1ccc2nc3ccc(=[N+](CC)CC)cc-3oc2c1.[Cl-]` [A-1 (60% purity)], the EC50 in data set [1] worked out at 181 nM; in data set [2], 2810 nM; in data set [3], 3950 nM.
Consider `CCN(CC)c1ccc2nc3ccc(=[N+](CC)CC)cc-3oc2c1.[Cl-]` [A-1 (>95% purity)], for which the EC50 in data set [3] was determined as 20500 nM.
For the compound `CN(C)c1ccc2nc3ccc(=[N+](C)C)cc-3oc2c1.CN(C)c1ccc2nc3ccc(=[N+](C)C)cc-3oc2c1.[Cl-].[Cl-].[Cl][Zn][Cl]` [Compound A-3], the EC50 was 565 nM in data set [1]; 887 nM in data set [2]; 8870 nM in data set [3] (setting [4]); 8870 nM in data set [3] (setting [5]); 8870 nM in data set [3] (setting [6]); 8870 nM in data set [3] (setting [7]).
For `CC[N+](CC)=c1ccc2nc3ccc(N(C)C)cc3oc-2c1` [Compound A-4], in data set [1] (EC50 rat L6 cell / EC50 protozoa of African trypanosomiasis), the Selective toxicity came out at 9.4. Moreover, in data set [1] (Trypanosoma brucei, STIB900), the EC50 was 497 nM.
On to `CCCC[N+](CCCC)=c1ccc2nc3ccc(N(CC)CC)cc3oc-2c1.[Cl-]` [Compound A-6], for which the EC50 in data set [1] amounted to 67.2 nM; in data set [2], 23 nM; in data set [3] (setting [4]), 839 nM; in data set [3] (setting [5]) it was 839 nM; in data set [3] (setting [6]) it was 839 nM; in data set [3] (setting [7]), 839 nM.
Turning to `CCCC[N+](CCCC)=c1ccc2nc3ccc(N(C)C)cc3oc-2c1.[O-][Cl+3]([O-])([O-])[O-]` [Compound A-7], the EC50 in data set [1] is 113 nM; in data set [2] it was 6 nM; in data set [3] (setting [4]), 409 nM; in data set [3] (setting [5]), 409 nM; in data set [3] (setting [6]), 409 nM; in data set [3] (setting [7]), 409 nM.
